The target of the assay is F508del-CFTR (Homo sapiens, UniProt P13569, DEL508-508). Kind of assay: HS-YFP iodide-influx fluorescence quenching assay, […] h incubation, Hill fit. The note with it: read-out: half-effective concentration. It counts as cell-based.
Sequence of F508del-CFTR (P13569 with tags, fused parts or gaps DEL508-508): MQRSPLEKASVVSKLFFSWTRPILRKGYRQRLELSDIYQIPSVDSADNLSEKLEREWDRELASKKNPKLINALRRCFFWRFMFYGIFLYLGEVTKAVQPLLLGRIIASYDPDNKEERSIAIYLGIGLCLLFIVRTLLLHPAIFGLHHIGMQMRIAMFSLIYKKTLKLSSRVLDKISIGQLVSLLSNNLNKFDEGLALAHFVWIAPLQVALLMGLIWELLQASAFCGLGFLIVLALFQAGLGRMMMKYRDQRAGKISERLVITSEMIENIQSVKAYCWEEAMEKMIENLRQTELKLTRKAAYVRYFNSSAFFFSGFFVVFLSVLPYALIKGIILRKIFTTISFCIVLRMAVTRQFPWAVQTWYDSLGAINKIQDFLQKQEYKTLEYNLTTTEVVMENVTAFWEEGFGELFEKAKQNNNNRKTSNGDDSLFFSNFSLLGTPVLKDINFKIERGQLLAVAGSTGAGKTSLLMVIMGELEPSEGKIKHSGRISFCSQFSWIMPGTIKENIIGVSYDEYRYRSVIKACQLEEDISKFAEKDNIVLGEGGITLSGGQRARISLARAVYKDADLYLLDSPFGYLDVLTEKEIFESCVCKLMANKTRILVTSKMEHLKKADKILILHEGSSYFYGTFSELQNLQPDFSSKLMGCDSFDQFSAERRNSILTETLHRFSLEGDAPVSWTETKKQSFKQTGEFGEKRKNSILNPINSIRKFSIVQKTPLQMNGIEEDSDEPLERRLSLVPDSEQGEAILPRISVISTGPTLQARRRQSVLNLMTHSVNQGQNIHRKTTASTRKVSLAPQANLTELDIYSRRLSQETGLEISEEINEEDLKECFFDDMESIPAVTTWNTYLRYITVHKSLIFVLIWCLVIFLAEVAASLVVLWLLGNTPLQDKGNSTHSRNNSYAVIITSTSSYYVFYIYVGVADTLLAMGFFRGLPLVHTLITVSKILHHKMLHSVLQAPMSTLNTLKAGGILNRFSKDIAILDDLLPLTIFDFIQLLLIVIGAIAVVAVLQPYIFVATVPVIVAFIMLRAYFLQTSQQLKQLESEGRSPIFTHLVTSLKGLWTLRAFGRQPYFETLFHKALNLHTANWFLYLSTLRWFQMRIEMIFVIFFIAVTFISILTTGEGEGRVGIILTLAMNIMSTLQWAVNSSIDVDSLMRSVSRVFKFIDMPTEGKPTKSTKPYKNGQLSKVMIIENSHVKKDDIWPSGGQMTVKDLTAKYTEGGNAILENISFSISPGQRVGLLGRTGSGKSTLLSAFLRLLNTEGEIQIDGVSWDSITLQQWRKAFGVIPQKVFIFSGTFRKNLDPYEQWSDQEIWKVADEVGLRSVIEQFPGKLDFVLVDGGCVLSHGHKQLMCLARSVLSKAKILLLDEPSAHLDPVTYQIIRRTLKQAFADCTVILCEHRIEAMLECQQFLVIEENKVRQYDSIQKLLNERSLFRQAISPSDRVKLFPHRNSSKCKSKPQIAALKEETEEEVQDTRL

Consider `COc1ccc(Cl)cc1NC(=O)c1cc2c([nH]1)-c1nc(NC(=O)C(C)(C)C)sc1CC2` [compound 44, N-(5-Chloro-2-Methoxyphenyl)-2-[(2,2-Dimethylpropanoyl)Amino]-5,8-Dihydro-4H-[1,3]Thiazolo[5,4-g]Indole-7-Carboxamide], for which the EC50 was 5 µM.
